# Like-named read-outs stand apart in the source and are kept apart here.
# Legend:
# [1] = test system: Ramos cells; test: MTT assay, Ramos; assay type: cell-based, human; conditions: 72 h, Burkitt lymphoma cell line, read-out: Cell lines IC50 [μM] Ramos
# Description: (§1) MAD-MB-231, MCF-7 and JAR cells were cultured in Dulbecco's modified Eagle's (DMEM) medium supplemented with 10% Fetal Bovine Serum (FBS), 100 u/mL penicillin-streptomycin. Jurkat, Molt-4 and Ramos cells were cultured in Roswell Park Memorial Institute (RPMI) 1640 medium with 10% Fetal Bovine Serum (FBS), 100 u/mL penicillin-streptomycin. All cell lines grown in an incubator with humidified 5% CO2 at 37° C.
# (§2) Jurkat, Molt-4 and Ramos cells were collected and seeded into 96-well plates at a density of 8000-10000 per well and treated with compounds. MCF-7, MDA-MB-231 and JAR cells were collected and seeded into 96-well plates at a density of 2000-3000 per well and cultured overnight to adherent before treat with compounds. After exposed to increasing concentrations of compounds for 72 h, the cells in each well were mixed with 20 μL of 5 mg/ml MTT (3-(4,5-dimethylthiazol-2-yl)-2,5-diphenyltetrazolium bromide) for 2 h, then add 50 μL of 20% SDS/0.01 M HCl incubated overnight, and detected the absorbance at a wavelength of 570 nm.
# (§3) Inhibition rate was calculated using the equation: […]
# (§4) The IC50 values were calculated by using GraphPad Prism 9 software fitting to a dose-response inhibition equation.
# [2] = test system: Molt-4 cells; test: MTT assay, Molt-4; assay type: cell-based, human; conditions: acute leukemia cell line, read-out: Cell lines IC50 [μM] Molt-4
# Description: as §1, §2, §3, §4
# [3] = test system: Jurkat cells; test: MTT assay, Jurkat; assay type: cell-based, human; conditions: 72 h, acute leukemia cell line, read-out: Cell lines IC50 [μM] Jurkat
# Description: as §1, §2, §3, §4
# [4] = test system: precursor microRNA-17 hairpin (pre-miR-17 hp); test: Differential scanning fluorimetry (DSF), pre-miR-17 hairpin; assay type: binding; conditions: 60 uM compound, 1 μM hairpin in PBS, Tm of compound minus Tm of DMSO control
# Description: (§5) To measure the binding between compounds and precursor microRNA-21 hairpin (pre-miR-21 hp) or precursor microRNA-17 hairpin (pre-miR-17 hp), DSF was performed as previously described with modification (ACS Chem. Biol. 2017, 12, 2, 435-443). Precursor microRNA hairpin was dissolved in PBS and annealed by briefly heating to 95° C. for 3 min and slowly cooling to rt. Assay was performed in duplicates using white qPCR 8-strips (VWR) with a total volume of 10 μL in PBS. The total reaction consisted of 1 μM precursor microRNA hairpin, 1% test compound (DMSO dilution) and 2×SYBR GreenII (Thermo Fisher Scientific). Compounds were incubated with precursor microRNA hairpin at for 10 min at rt, then SYBR GreenII was added to each well, mixed and incubated 10 min at rt. The strips were spined and loaded to the RT-PCR detection system (BIO-RAD CFX Connect), the fluorescence intensity was obtained every 1° C. for 30 s in the range of 20° C. to 80° C.
# (§6) The melting temperature (Tm) was determined by the maximum of the negative of the first derivative of the fluorescence vs temperature melting curves. The ΔTm was calculated by the Tm value of compound subtract the Tm value of the DMSO control.
# [5] = test system: precursor microRNA-21 hairpin (pre-miR-21 hp); test: Differential scanning fluorimetry (DSF), pre-miR-21 hairpin; assay type: binding; conditions: 60 uM compound, 1 μM hairpin in PBS, Tm of compound minus Tm of DMSO control
# Description: as §5, §6
# [6] = test system: MCF-7 cells; test: MTT assay, MCF-7; assay type: cell-based, human; conditions: breast cancer cell line, read-out: Cell lines IC50 [μM] MCF-7
# Description: as §1, §2, §3, §4
# [7] = test system: MDA-MB-231 cells; test: MTT assay, MDA-MB-231; assay type: cell-based, human; conditions: breast cancer cell line, read-out: Cell lines IC50 [μM] MDA-MB-231
# Description: as §1, §2, §3, §4
# [8] = test system: JAR cells; test: MTT assay, JAR; assay type: cell-based, human; conditions: 72 h, choriocarcinoma cell line, read-out: Cell lines IC50 [μM] JAR
# Description: as §1, §2, §3, §4
Compound,"IC50 ([1]; Homo sapiens, Ramos)","IC50 ([2]; Homo sapiens, MOLT-4, 72 h)","IC50 ([3]; Homo sapiens, Jurkat)",ΔTm (pre-miR-17 hp) @60 uM [° C.] [4],ΔTm (pre-miR-21 hp) @60 uM [° C.] [5],IC50 ([2]; 72 h),"IC50 ([6]; Homo sapiens, MCF7, 72 h)","IC50 ([7]; Homo sapiens, MDA-MB-231, 72 h)",IC50 [8],IC50 ([8]; Homo sapiens),IC50 [1],IC50 [3],IC50 ([6]; 72 h),IC50 ([7]; 72 h)
"CCCN1C(CO)C(c2ccc(-c3ccc(C(F)(F)F)cc3)cc2)C1CNC(=O)c1sc2ncccc2c1N (stereo not shown) [Compound A5, 3-amino-N-((4-(hydroxymethyl)-1-propyl-3-(4′-(trifluoromethyl)-[1,1′-biphenyl]-4-yl)azetidin-2-yl)methyl) thieno[2,3-b]pyridine-2-carboxamide]",5.05 µM,5.49 µM,5.13 µM,–,–,–,–,–,–,–,–,–,–,–
"N#CC1C(c2ccc(-c3ccc(C(F)(F)F)cc3)cc2)C(CO)N1C(=O)c1sc2ncccc2c1N (stereo not shown) [Compound A3, 1-(3-aminothieno[2,3-b]pyridine-2-carbonyl)-4-(hydroxymethyl)-3-(4′-(trifluoromethyl)-[1,1′-biphenyl]-4-yl) azetidine-2-carbonitrile]",7.03 µM,–,3.73 µM,−6.5 ± 0.5 °C,−6 °C,10.8 µM,6.22 µM,18.6 µM,9.75 µM,–,–,–,–,–
"CNc1nc(N2CC(C3(C(F)(F)F)C=CC(c4ccccc4)=CC3)C2C#N)nc2ccccc12 (stereo not shown) [Compound B6, 1-(4-(methylamino)quinazolin-2-yl)-3-(4 (trifluoromethyl)-[1,1′-biphenyl]-4-yl) azetidine-2-carbonitrile]",1.82 µM,4.79 µM,5.47 µM,1.25 °C,–,–,5.23 µM,7.07 µM,–,1.29 µM,–,–,–,–
"CCCN1C(CO)C(c2ccc(-c3ccc4nc[nH]c4c3)cc2)C1CNC(=O)c1sc2ncccc2c1N (stereo not shown) [Compound A8, N-((3-(4-(1H-benzo[d]imidazol-6-yl)phenyl)-4-(hydroxymethyl)-1-propylazetidin-2-yl)methyl)-3-aminothieno[2,3-b]pyridine-2-carboxamide]",26.8 µM,8.5 µM,19.1 µM,–,–,–,–,–,–,–,–,–,–,–
"CCCN1C(CO)C(c2ccc(-c3ccc4nc[nH]c4c3)cc2)C1CNC(=O)c1sc2ncccc2c1N (stereo not shown) [Compound A9, N-((3-(4-(1H-benzo[d]imidazol-6-yl)phenyl)-4-(hydroxymethyl)-1-propylazetidin-2-yl)methyl)-3-aminothieno[2,3-b]pyridine-2-carboxamide]",–,–,–,0 °C,0 °C,11.4 µM,> 20 µM,> 20 µM,–,9.56 µM,> 20 µM,> 20 µM,–,–
"3-(4-(1H-benzo[d]imidazol-6-yl)phenyl)-1-(3-aminothieno[2,3-b]pyridine-2-carbonyl)-4-(hydroxymethyl)azetidine-2-carbonitrile [Compound A7]",–,–,–,0 °C,0 °C,–,–,–,5.74 µM,–,–,–,> 20 µM,> 20 µM
"CCCN1C(CO)C(c2ccc(-c3ccc(C(F)(F)F)cc3)cc2)C1CNC(=O)c1sc2ncccc2c1N (stereo not shown) [Compound A4, 3-amino-N-((4-(hydroxymethyl)-1-propyl-3-(4′-(trifluoromethyl)-[1,1′-biphenyl]-4-yl)azetidin-2-yl)methyl) thieno[2,3-b]pyridine-2-carboxamide]",–,–,–,−1 °C,−2 °C,–,–,–,2.3 µM,–,–,–,5.79 µM,7.02 µM
"CNc1nc(N2CC(c3ccc(-c4c(C)noc4C)cc3)C2C#N)nc2ccccc12 (stereo not shown) [Compound B1, 3-(4-(3,5-dimethylisoxazol-4-yl)phenyl)-1-(4-(methylamino)quinazolin-2-yl) azetidine-2-carbonitrile]",–,7.01 µM,6.31 µM,0 °C,0 °C,–,9.92 µM,14.4 µM,–,1.74 µM,7.35 µM,–,–,–
"Cc1noc(C)c1-c1ccc(C2CN(C(=O)c3sc4ncccc4c3N)C2C#N)cc1 (stereo not shown) [Compound B3, 1-(3-aminothieno[2,3-b]pyridine-2-carbonyl)-3-(4-(3,5-dimethylisoxazol-4-yl)phenyl) azetidine-2-carbonitrile]",–,–,–,–,–,–,–,–,1.28 µM,–,–,–,5.72 µM,12.5 µM
"N#CC1C(c2ccc(-c3ccc(C(F)(F)F)cc3)cc2)C(CO)N1C(=O)c1ccc(NC(=O)c2sc3ncccc3c2N)cc1 (stereo not shown) [Compound A1, 1-(1-amino-(3-aminothieno[2,3-b]pyridine-2-carbonyl)phenyl-4-carbonyl)-4-(hydroxymethyl)-3-(4′-(trifluoromethyl)-[1,1′-biphenyl]-4-yl) azetidine-2-carbonitrile]",4.81 µM,2.91 µM,2.81 µM,−3 °C,−2 °C,–,5.95 µM,10 µM,–,2.95 µM,–,–,–,–
"CNc1nc(N2CC(c3ccc(-c4ccc5nc[nH]c5c4)cc3)C2C#N)nc2ccccc12 (stereo not shown) [Compound B10, 3-(4-(1H-benzo[d]imidazol-6-yl)phenyl)-1-(4-(methylamino)quinazolin-2-yl) azetidine-2-carbonitrile]",8.27 µM,–,–,0 °C,0 °C,12.1 µM,–,–,4.78 µM,–,–,11.2 µM,8.24 µM,10.8 µM
"N#CC1C(c2ccc(-c3ccc(C(F)(F)F)cc3)cc2)CN1C(=O)c1sc2ncccc2c1N (stereo not shown) [Compound B7, 1-(3-aminothieno[2,3-b]pyridine-2-carbonyl)-3-(4′-(trifluoromethyl)-[1,1′-biphenyl]-4-yl) azetidine-2-carbonitrile]",6.61 µM,13.9 µM,7.42 µM,–,–,–,–,–,1.16 µM,1.5 µM,–,–,–,–
"N#CC1C(c2ccc(-c3ccc(C(F)(F)F)cc3)cc2)C(CO)N1C(=O)c1sc2ncccc2c1N (stereo not shown) [Compound A2, 1-(3-aminothieno[2,3-b]pyridine-2-carbonyl)-4-(hydroxymethyl)-3-(4′-(trifluoromethyl)-[1,1 biphenyl]-4-yl) azetidine-2-carbonitrile]",–,–,–,−2 °C,−2.5 ± 0.5 °C,4.61 µM,–,–,3.41 µM,–,3.8 µM,3.35 µM,–,–
"Cc1noc(C)c1-c1ccc(C2CN(C(=O)c3sc4ncccc4c3N)C2C#N)cc1 (stereo not shown) [Compound B4, 1-(3-aminothieno[2,3-b]pyridine-2-carbonyl)-3-(4-(3,5-dimethylisoxazol-4-yl)phenyl) azetidine-2-carbonitrile]",12.4 µM,10.6 µM,7.3 µM,0 °C,0 °C,–,–,> 20 µM,5.92 µM,–,–,–,12.5 µM,–
